In patent US20230172914A1, “BIOMARKER-BASED THERAPEUTIC COMPOSITION” (WELLMARKER BIO CO., LTD., priority 2019, published 2023):

Legend:
[1] = system: Colo320HSR cell line overexpressing RON mutants (mt #1: Δ160, mt #2: Δ155); test: Drug efficacy after overexpression of RON mutants in Colo320HSR (trypan blue, Western blotting); type: cell-based
Method: Efficacy analysis for RON mutants was performed by overexpressing RON mutants, and then identifying cell death-inducing ability through Western blotting. Colo320HSR cell line was seeded onto a 100-mm plate, and then a RON mutant #1 (Δ160)- or RON mutant #2 (Δ155)-expressing vector was introduced into the cell line using a transfection solution (Polyplus). After 24 hours, the cell line was seeded onto a 60-mm plate at 2×10^5 cells. Then, after 24 hours, while performing medium exchange, the cells were subjected to treatment with Example 18 at respective concentrations (1 μM, 5 μM) for 48 hours.
After 48 hours, the cells and cell suspensions were collected (1,500 rpm, 3 minutes), and live cells and dead cells were quantitated (n=2) through trypan blue exclusion assay. Subsequently, the remaining cells were collected and lysed by adding RIPA Lysis Buffer (T&I) to the respective cells for the purpose of identifying, with Western blotting, inhibitory capacity on active RON and cell death-inducing ability. Then, proteins were quantified by BCA kit (Pierce).
(§1) Subsequently, the proteins were reacted with primary antibodies (active RON, cleaved caspase-3, beta actin), which were diluted 1:1,000 in 5% non-fat skim milk-TBST solution, at 4° C. for 24 hours or 48 hours. Then, washing with TBST was performed three times. The resultant was reacted with anti-rabbit and anti-mouse IgG conjugated horseradish peroxidase (HRP) secondary antibodies, which were diluted at 1:1,000, at room temperature for 2 hours. Then, washing with TBST was washed three times. Subsequently, the membrane was treated with the ECL solution (GE Healthcare), and developed by exposure to an X-ray film. Then, the bands were checked.

[2] = system: colon cancer patient tissue (active RON/RON mutant #1: Δ160); test: Efficacy in animal model transplanted with colon cancer patient tissue, 30 mpk; type: in vivo; conditions: 30 mpk for 4 weeks
Method: Example 18 and Comparative Example 1 were administered to an animal model transplanted with the same patient tissue (active RON/RON mutant #1: Δ160) cells as in the animal model transplanted with colon cancer patient tissue tumor cells at 30 mpk for 4 weeks. […] The lower pictures of FIG. 21 show tumors extracted from representative individuals of the respective groups.

KM12C cell line tumor [3] = test: Efficacy in animal model transplanted with KM12C, 30 and 50 mpk (Experimental Example 11); type: in vivo, BALB/c nude mice; conditions: once a day for 2 weeks
Method: 5-Week-old female BALB/c nude mice were purchased and acclimatized for 1 week. Then, human-derived colon cancer cell line KM12C (1.5×10^6 cells/mice) was diluted in PBS, and injected subcutaneously (100 μl) into the right dorsal side of the mice. Comparative Examples 1 and Example 18 were orally administered when the tumor reached a size of about 100 mm^3. The drug was administered at 30 mpk and 50 mpk once a day for 2 weeks, and tumor size and body weight were measured twice a week. […] After completion of the drug administration, the experimental animals were euthanized, and then the tumors were extracted and weighed to perform comparative analysis.

active RON (pTyr-RON) = test: Western blotting of active RON in KM12C; type: cell-based, human
Method: The cell killing efficacy of Example 18 and Comparative Example 1 was analyzed, and then the cells were collected. Western blotting was performed to identify inhibitory capacity of Example 18 on active RON. RIPA Lysis Buffer (T&I) was added to the respective cells so as to achieve lysis. Then, BCA kit (Pierce) was used to quantify proteins. The proteins were loaded onto 6% SDS-polyacrylamide with a protein concentration of 40 μg, and electrophoresis was performed at 125 V.
as §1, with “primary antibody” for “primary antibodies”, “RON,” for “RON, cleaved caspase-3,”, “which was” for “which were”, “secondary antibody,” for “secondary antibodies,”

KM12C cell line tumor [4] = test: Effective dose concentration in animal model transplanted with KM12C; type: in vivo, BALB/c nude mice; conditions: once a day for 2 weeks
Method: 5-Week-old female BALB/c nude mice were purchased and acclimatized for 1 week. Then, human-derived colon cancer cell line KM12C (1.5×10^6 cells/mice) was diluted in PBS, and injected subcutaneously (100 μl) into the right dorsal side of the mice. Example 18 was orally administered at respective doses when the tumor reached a size of about 100 mm^3. The drug was administered once a day for 2 weeks, and tumor size and body weight were measured twice a week to perform comparative analysis. After completion of the drug administration, the experimental animals were euthanized, and then the tumors were extracted and weighed to perform comparative analysis.

KM12C (RONΔ160) = test: Cell death-inducing ability, trypan blue exclusion, KM12C; type: cell-based, human; conditions: 48 hours
Method: The cell death-inducing ability of Example 18 and Comparative Example 1 was measured in KM12C with RON mutant (Δ160), a cetuximab-resistant cell line, and Colo320HSR cell line, a cell line not expressing RON. The two colon cancer cell lines were seeded, respectively, onto 60-mm plates at 2×10^5 cells. Then, after 24 hours, while performing medium exchange, the cells were subjected to treatment with the sample compounds at respective concentrations (1 μM, 5 μM) for 48 hours. After 48 hours, the cells and cell suspensions were collected (1,500 rpm, 3 minutes), and live cells and dead cells were quantitated (n=2) through trypan blue (15250-061, Gibco) exclusion assay.

[5] = RON mutant-transfected Colo320HSR

## CCOc1ccn(-c2ccc(F)cc2)c(=O)c1C(=O)Nc1ccc(Oc2ccnc3cc(-c4ccc(CN5CCOCC5)cn4)sc23)c(F)c1.Cl [Example 18, 4-ethoxy-N-[3-fluoro-4-({2-[5-(morpholinomethyl)pyridin-2-yl]thieno[3,2-b]pyridine-7-yl}oxy)phenyl]-1-(4-fluorophenyl)-2-oxo-1,2-dihydropyridine-3-carboxamide hydrochloride]
[1]; 1 μM, 5 μM, 48 hours, group transfected with RON mutant
  cell death (trypan blue exclusion assay): cell death induction at the respective concentrations is observed
[1]; [5]
  active RON expression level (Western blotting): decreased expression level
  cleaved caspase 3 expression level (Western blotting): increased expression level
[2]
  tumor growth inhibition efficacy: about 73%
KM12C cell line tumor [3]; 30 mg/kg oral
  TGI (%): 82.4%
KM12C cell line tumor [3]; 50 mg/kg oral
  TGI (%): 84.8%
KM12C cell line tumor [3]; 30 mpk and 50 mpk oral
  change in mouse body weight: little change in mouse body weight
  tumor growth inhibition efficacy: very high tumor growth inhibition efficacy
Active RON (pTyr-RON)
  expression of active RON (Western blotting): decreases
KM12C cell line tumor [4]; oral at respective doses
  tumor growth: inhibited in a concentration-dependent manner
KM12C cell line tumor [4]; oral
  effective dose concentration: 5.214 mpk
KM12C (RONΔ160); 1 μM
  Cell death, KM12C (RONΔ160): 29.0
KM12C (RONΔ160); 5 μM
  Cell death, KM12C (RONΔ160): 35.2
